Experimental data from PMC3397457, “Preclinical Evaluation of Anticancer Efficacy and Pharmacological Properties of FBA-TPQ, a Novel Synthetic Makaluvamine Analog” (Marine Drugs, 2012).
Like-named read-outs stand apart in the source and are kept apart here.

Columns and labels:
[1] = MTT cell survival assay, IMR-90 normal fibroblasts; format: cell-based; conditions: human, IMR-90 normal fetal fibroblast cells, read-out: Cytotoxicity IC50
Description: We evaluated the effects of FBA-TPQ on the survival of several human pancreatic cancer cell lines, including HPAC (p53^+/+), Panc-1(p53^+/−), and Mia PaCa-2(p53^+/−), as well as normal IRM90 fetal fibroblast cells (Figure 2a). Cells were exposed to various concentrations of the test compound (0–10 µM) for 72 h, and cell survival rates were determined by the MTT assay, using a procedure reported previously. FBA-TPQ exerted potent effects against the test cancer cell lines, leading to significant decreases in cell viability.
Human pancreatic cancer cells were obtained from the American Type Culture Collection (Rockville, MD). All cell culture media contained 10% FBS and 1% penicillin/streptomycin. […]
The effect of the test compound on human pancreatic cancer cell viability, expressed as the percentage of cell survival, was determined using the MTT (3-(4,5-dimethylthiazol-2-yl)-2,5-diphenyl tetrazolium bromide) assay. […] The absorbance at 570 nm was recorded using an OPTImax microplate reader (Molecular Devices; Sunnyvale, CA, USA). The cell survival percentages were calculated by dividing the mean OD of compound-containing wells by that of DMSO-containing control wells. […]

[2] = Pharmacokinetics and tissue distribution in BALB/c mice; format: in vivo; conditions: for Vd: read-out: Vss
Description: To assess the disposition of FBA-TPQ in vivo, pharmacokinetic studies in BALB/c were conducted. The results of the mean plasma concentration-time curves of FBA-TPQ, and tissue concentration-time curves of FBA-TPQ, after intravenous or intraperitoneal injection in BALB/c mice are presented in Figure 5. Two-compartmental model (WinNonlin 6.0 Model 7, Pharsight Corporation: Mountain View, CA, USA, 2009) was used to analyze the data obtained following intravenous (iv) and intraperitoneal (ip) administration of the compound.
Female BALB/c (18–20 g) mice were purchased from Harlan Laboratories (Indianapolis, IN). All animals were fed with commercial diet and water ad libitum and were on an alternating 12 h light/dark cycle. The mice were randomly divided into groups of three, and were dosed either intravenously (5 mg/kg) or intraperitoneally (10 mg/kg) with FBA-TPQ in PEG 400: ethanol: saline (57.1%:14.3%:28.6%). Before dosing, and at 5, 15, 30, and 60 min, and 2, 4, 8, and 24 h after dosing, groups of animals (three/time point) were anesthetized, and blood was collected from the retro-orbital sinus into heparinized tubes. Plasma was obtained by centrifuging the blood samples at 14,000 rpm for 15 min. FBA-TPQ was then extracted from plasma and stored at −80 °C until analysis. The brain, heart, kidneys, liver, lungs, and spleen were also collected at the same time points during necropsy, blotted on Whatman No. 1 filter paper, trimmed of extraneous fat and connective tissue, weighed, and homogenized in phosphate-buffered saline. The resulting homogenates were stored at −80 °C until further processing and analysis.
The average FBA-TPQ concentrations in plasma and tissues at each of the time points following intravenous and intraperitoneal administrations were used for pharmacokinetic analyses using a one- or two-compartmental model, respectively. The following pharmacokinetic parameters were estimated using Phoenix WinNonlin 6.0 (Mountain View, CA, USA): area under the concentration-time curve (AUC, h·μg/mL), half-life (T½, h), maximum concentration (Cmax, μg/mL), time of the maximum concentration (Tmax, h), and clearance (CL, mL/h/kg), as applicable. Bioavailability (X) was calculated as X = [AUCip × doseiv]/[AUCiv × doseip].

[3] = female, mouse, brain, ip, 10 mg/kg
[4] = female, mouse, brain, iv, 5 mg/kg
[5] = female, mouse, heart, ip, 10 mg/kg
[6] = female, mouse, heart, iv, 5 mg/kg
[7] = female, mouse, kidneys, ip, 10 mg/kg
[8] = female, mouse, kidneys, iv, 5 mg/kg
[9] = female, mouse, liver, ip, 10 mg/kg
[10] = female, mouse, liver, iv, 5 mg/kg
[11] = female, mouse, lungs, ip, 10 mg/kg
[12] = female, mouse, lungs, iv, 5 mg/kg
[13] = female, mouse, plasma, ip, 10 mg/kg
[14] = female, mouse, plasma, iv, 5 mg/kg
[15] = female, mouse, spleen, ip, 10 mg/kg
[16] = female, mouse, spleen, iv, 5 mg/kg

Question: Which IC50 at 72 h [1] does the source give for `O=C1C(NCc2ccc(F)cc2)=CC2=NCCc3c[nH]c1c32` [FBA-TPQ, 7-(4-fluorobenzylamino)-1,3,4,8-tetrahydropyrrolo[4,3,2-de]quinolin-8(1H)-one] here?
Answer: 5.82 ± 0.46 µM

Question: And the “detectability in mouse plasma” value ([2]; 4 h after iv injection, 5 mg/kg)?
Answer: no longer detectable

Question: And the Vss ([2]; brain, ip, 10 mg/kg)?
Answer: 4.10 mL/g

Question: What about the AUC [2, 3] of the same compound?
Answer: 62.3 ng·h/mL

Question: And the half-life [2, 3]?
Answer: 110 min

Question: And the AUC [2, 4]?
Answer: 138 ng·h/mL

Question: And the half-life [2, 4]?
Answer: 15.1 min

Question: And the clearance ([2]; female, mouse, brain, iv, 5 mg/kg, read-out: Cl (converted))?
Answer: 575 mL/min/kg

Question: What about the Vd [2, 4] of the same compound?
Answer: 18.7 L/kg

Question: And the AUC [2, 5]?
Answer: 2360 ng·h/mL

Question: And the half-life [2, 5]?
Answer: 32.5 min

Question: What about the AUC [2, 6] of the same compound?
Answer: 2000 ng·h/mL

Question: What about the half-life [2, 6] of the same compound?
Answer: 30.1 min

Question: And the clearance ([2]; female, mouse, heart, iv, 5 mg/kg, read-out: Cl (converted))?
Answer: 41.2 mL/min/kg

Question: What about the Vd [2, 6] of the same compound?
Answer: 1.77 L/kg

Question: And the AUC [2, 7]?
Answer: 14700 ng·h/mL

Question: What about the half-life [2, 7] of the same compound?
Answer: 94.8 min

Question: And the AUC [2, 8]?
Answer: 11500 ng·h/mL

Question: What about the half-life [2, 8] of the same compound?
Answer: 15.1 min

Question: What about the clearance ([2]; female, mouse, kidneys, iv, 5 mg/kg, read-out: Cl (converted)) of the same compound?
Answer: 7.27 mL/min/kg

Question: And the Vd [2, 8]?
Answer: 0.491 L/kg

Question: And the AUC [2, 9]?
Answer: 1850 ng·h/mL

Question: And the half-life [2, 9]?
Answer: 7.62 min

Question: What about the AUC [2, 10] of the same compound?
Answer: 949 ng·h/mL

Question: What about the half-life [2, 10] of the same compound?
Answer: 30.6 min

Question: What about the clearance ([2]; female, mouse, liver, iv, 5 mg/kg, read-out: Cl (converted)) of the same compound?
Answer: 78.3 mL/min/kg

Question: What about the Vd [2, 10] of the same compound?
Answer: 3.34 L/kg

Question: And the AUC [2, 11]?
Answer: 5710 ng·h/mL

Question: What about the half-life [2, 11] of the same compound?
Answer: 21.8 min

Question: And the AUC [2, 12]?
Answer: 4020 ng·h/mL

Question: And the half-life [2, 12]?
Answer: 30.1 min

Question: And the clearance ([2]; female, mouse, lungs, iv, 5 mg/kg, read-out: Cl (converted))?
Answer: 20.6 mL/min/kg

Question: And the Vd [2, 12]?
Answer: 7.79 L/kg

Question: And the bioavailability ([2]; female, mouse, plasma, intraperitoneal, based on AUC values, ip 10 mg/kg vs iv 5 mg/kg)?
Answer: 28.9%

Question: What about the AUC [2, 13] of the same compound?
Answer: 338 ng·h/mL

Question: And the half-life [2, 13]?
Answer: 13.1 min

Question: And the concentration at 5 min ([2]; female, mouse, plasma, ip, 10 mg/kg, at 5 min)?
Answer: 542 ng/mL

Question: What about the concentration at 2 h ([2]; female, mouse, plasma, ip, 10 mg/kg, at 2 h) of the same compound?
Answer: 40.2 ng/mL

Question: And the AUC [2, 14]?
Answer: 583 ng·h/mL

Question: What about the half-life [2, 14] of the same compound?
Answer: 14.9 min

Question: What about the Vd [2, 14] of the same compound?
Answer: 18.7 L/kg

Question: What about the clearance ([2]; female, mouse, plasma, single bolus iv dose 5 mg/kg, read-out: clearance rate (converted)) of the same compound?
Answer: 141 mL/min/kg

Question: What about the AUC [2, 15] of the same compound?
Answer: 6500 ng·h/mL

Question: What about the half-life [2, 15] of the same compound?
Answer: 104 min

Question: And the AUC [2, 16]?
Answer: 2330 ng·h/mL

Question: And the half-life [2, 16]?
Answer: 4.86 min

Question: And the clearance ([2]; female, mouse, spleen, iv, 5 mg/kg, read-out: Cl (converted))?
Answer: 33 mL/min/kg

Question: What about the Vd [2, 16] of the same compound?
Answer: 1.27 L/kg

Question: And the Cl ([2]; heart, ip, 10 mg/kg)?
Answer: 64.2 mL/min/kg

Question: And the Vss ([2]; heart, ip, 10 mg/kg)?
Answer: 2.19 mL/g

Question: And the “order of highest overall tissue concentrations” value ([2]; ip, 10 mg/kg)?
Answer: kidneys > spleen > lungs > liver > heart > brain

Question: And the concentration in plasma ([2]; ip, 10 mg/kg, 4 h after administration)?
Answer: undetectable levels

Question: And the “order of highest overall concentrations in the tissues examined” value ([2]; iv, 5 mg/kg)?
Answer: kidneys > lungs > heart > spleen > plasma ≈ liver > brain

Question: And the Cl ([2]; kidneys, ip, 10 mg/kg)?
Answer: 13.7 mL/min/kg

Question: What about the Vss ([2]; kidneys, ip, 10 mg/kg) of the same compound?
Answer: 0.801 mL/g

Question: What about the Cl ([2]; liver, ip, 10 mg/kg) of the same compound?
Answer: 64.2 mL/min/kg

Question: And the Cl ([2]; lungs, ip, 10 mg/kg)?
Answer: 31.3 mL/min/kg

Question: What about the Vss ([2]; lungs, ip, 10 mg/kg) of the same compound?
Answer: 10.32 mL/g

Question: And the Cl ([2]; plasma, ip, 10 mg/kg)?
Answer: 330 mL/min/kg

Question: What about the Vss ([2]; plasma, ip, 10 mg/kg) of the same compound?
Answer: 21.8 mL/g

Question: What about the Cl ([2]; plasma, iv, 5 mg/kg) of the same compound?
Answer: 141 mL/min/kg

Question: What about the Cl ([2]; spleen, ip, 10 mg/kg) of the same compound?
Answer: 15.5 mL/min/kg

Question: What about the Vss ([2]; spleen, ip, 10 mg/kg) of the same compound?
Answer: 0.78 mL/g
